Source: patent US8288442B2, “Use of derivatives of valproic acid amides and 2-valproenic acid amides for the treatment or prevention of pain and/or headache disorders” (Yissum Research Development Company of The Hebrew …, priority 2000, dated 2012)

Tests used:
Chung model = Chung model of neuropathic pain (L5/L6 spinal nerve ligation, tactile allodynia, von Frey filaments); type: in vivo, rat; conditions: 300 mg/kg per os, male Sabra rats
From the text: The potential of Compound 1 to serve as an anti-pain agent was studied in the Chung model (Kim, S. H. and Chung, J. M.). This model is known as a reliable model, predictive for human pain. (Kim, S. H. and Chung, J. M.). In this model, spinal nerves L5 and L6 of the rat are tightly ligated and cut in order to induce neuropathic pain. Male Sabra rats weighing 250-275 g were used throughout the study. Under xylazine-ketamine anesthesia, both the L5 and L6 spinal nerves of one side of the rat were tightly ligated and cut. Pain behavior was measured following operation in all groups using withdrawal latencies of the hind paw to mechanical stimulation with von Frey filaments (tactile allodynia). The mechanical sensitivity of the foot was quantified by the occurrence of foot withdrawal in response to normally innocuous mechanical stimuli. Eight different von Frey filaments ranging from 0.6 to 26 g were used.
The efficacy (antiallodynic effect) of the compound was evaluated (300 mg/kg, per os (oral)) in eight rats at days 7 and 14 postoperation in a double-blind randomized crossover manner. The testing included estimation of time of peak effect following drug administration and measurement of the ability of the compound to decrease tactile allodynia.

[1] = system: plasma protein extravasation; experiment: migraine model of Moskowitz (plasma protein extravasation into the dura mater); type: in vivo; conditions: control = 100
From the text: Evaluation of the anti-headache effects of Compounds 1 and 2 are followed in the migraine model of Moskowitz (Suzzi, M. C. and Moskowitz, M. A.). In this model, neurogenic inflammation results in the leakage of plasma proteins into the dura matter (plasma protein extravasation), which can be quantified by measuring the leakage of radioactive albumin (Suzzi, M. C. and Moskowitz, M. A.).

[2] = system: rat constriction injury model; experiment: rat chronic constriction injury model of neuropathic pain (cold allodynia); type: in vivo; conditions: read-out: ED50 for reversal of cold allodynia
Description: The anti-pain effects of Compounds 1 and 2 are evaluated in a model for traumatic nerve injury. The specific model is the rat constriction injury model, a commonly accepted model for the evaluation of the potential of a compound to treat chronic neuropathic pain. The end point is whether a compound can reverse cold allodynia in rats following a neuropathic injury. MC may be used as the control.

## CCCC(CCC)C(=O)NCC(N)=O [Compound 1, N-(2-n-propylpentanoyl)glycinamide]
Chung model; antiallodynic effect
  Time of peak effect: 60 min
Chung model; days 7 and 14 postoperation, significant at 60 min (p=0.0207) and 120 min (p=0.0102)
  Effect on tactile allodynia in comparison to vehicle: reversed tactile allodynia
[1]
  Percent Extravasation Compared to Control: <100
[2]
  ED50: < 500 mg/kg

## CC/C=C(\CCC)C(=O)NCC(N)=O [Compound 2, N-(2-n-propylpent-2-enoyl)glycinamide]
[1]
  Percent Extravasation Compared to Control: <100
[2]
  ED50: < 500 mg/kg
